How the values were obtained:
[1] = biological target: T1, Bifunctional epoxide hydrolase 2 (Homo sapiens, UniProt P34913); assay: Inhibition of His-tagged human recombinant soluble epoxide hydrolase pre-incubated for 15 mins before Epoxy-fluor7 substrate addition and measured after 20 mins by fluorescence based assay
T1 sequence (P34913 whole entry): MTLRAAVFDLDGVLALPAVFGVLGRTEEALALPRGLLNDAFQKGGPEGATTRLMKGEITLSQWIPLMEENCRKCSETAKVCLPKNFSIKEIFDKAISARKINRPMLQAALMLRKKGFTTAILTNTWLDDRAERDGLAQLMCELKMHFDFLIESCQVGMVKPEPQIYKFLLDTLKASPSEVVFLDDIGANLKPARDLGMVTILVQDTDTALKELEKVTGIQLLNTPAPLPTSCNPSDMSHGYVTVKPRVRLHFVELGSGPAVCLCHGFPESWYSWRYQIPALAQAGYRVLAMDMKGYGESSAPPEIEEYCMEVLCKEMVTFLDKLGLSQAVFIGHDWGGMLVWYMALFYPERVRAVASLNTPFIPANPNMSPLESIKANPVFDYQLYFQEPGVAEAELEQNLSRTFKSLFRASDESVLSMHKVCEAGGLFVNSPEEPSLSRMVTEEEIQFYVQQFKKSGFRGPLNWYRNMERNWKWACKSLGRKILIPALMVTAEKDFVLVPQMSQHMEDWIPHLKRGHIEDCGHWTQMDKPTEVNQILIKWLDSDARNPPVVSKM

[2] = biological target: T2, Estrogen receptor (Homo sapiens, UniProt P03372); assay: Inhibition of His-tagged human ERalpha pre-incubated for 15 mins before fluorescent ligand addition and measured after 1 hr by fluorescence polarization assay
T2 sequence (P03372 whole entry): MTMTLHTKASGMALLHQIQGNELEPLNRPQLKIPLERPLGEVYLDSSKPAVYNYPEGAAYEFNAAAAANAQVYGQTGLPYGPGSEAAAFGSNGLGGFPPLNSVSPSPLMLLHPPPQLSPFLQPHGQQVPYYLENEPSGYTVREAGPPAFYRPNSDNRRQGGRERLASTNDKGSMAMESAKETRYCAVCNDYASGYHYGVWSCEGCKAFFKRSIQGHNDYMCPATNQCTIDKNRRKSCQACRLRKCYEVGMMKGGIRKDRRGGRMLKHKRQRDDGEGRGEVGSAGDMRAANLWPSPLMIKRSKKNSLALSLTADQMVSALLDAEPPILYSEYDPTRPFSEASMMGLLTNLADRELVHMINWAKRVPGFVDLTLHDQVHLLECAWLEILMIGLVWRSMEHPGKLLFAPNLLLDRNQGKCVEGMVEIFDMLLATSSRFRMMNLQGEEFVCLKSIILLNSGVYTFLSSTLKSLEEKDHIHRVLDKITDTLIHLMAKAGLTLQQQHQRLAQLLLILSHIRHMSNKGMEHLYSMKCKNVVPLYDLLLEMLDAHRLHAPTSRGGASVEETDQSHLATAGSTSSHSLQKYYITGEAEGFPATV

[3] = biological target: Mast/stem cell growth factor receptor Kit (Homo sapiens, UniProt P10721); assay: Inhibition of recombinant c-Kit (unknown origin) incubated for 1 hr by ADP-Glo assay
Sequence of Mast/stem cell growth factor receptor Kit (P10721 whole entry): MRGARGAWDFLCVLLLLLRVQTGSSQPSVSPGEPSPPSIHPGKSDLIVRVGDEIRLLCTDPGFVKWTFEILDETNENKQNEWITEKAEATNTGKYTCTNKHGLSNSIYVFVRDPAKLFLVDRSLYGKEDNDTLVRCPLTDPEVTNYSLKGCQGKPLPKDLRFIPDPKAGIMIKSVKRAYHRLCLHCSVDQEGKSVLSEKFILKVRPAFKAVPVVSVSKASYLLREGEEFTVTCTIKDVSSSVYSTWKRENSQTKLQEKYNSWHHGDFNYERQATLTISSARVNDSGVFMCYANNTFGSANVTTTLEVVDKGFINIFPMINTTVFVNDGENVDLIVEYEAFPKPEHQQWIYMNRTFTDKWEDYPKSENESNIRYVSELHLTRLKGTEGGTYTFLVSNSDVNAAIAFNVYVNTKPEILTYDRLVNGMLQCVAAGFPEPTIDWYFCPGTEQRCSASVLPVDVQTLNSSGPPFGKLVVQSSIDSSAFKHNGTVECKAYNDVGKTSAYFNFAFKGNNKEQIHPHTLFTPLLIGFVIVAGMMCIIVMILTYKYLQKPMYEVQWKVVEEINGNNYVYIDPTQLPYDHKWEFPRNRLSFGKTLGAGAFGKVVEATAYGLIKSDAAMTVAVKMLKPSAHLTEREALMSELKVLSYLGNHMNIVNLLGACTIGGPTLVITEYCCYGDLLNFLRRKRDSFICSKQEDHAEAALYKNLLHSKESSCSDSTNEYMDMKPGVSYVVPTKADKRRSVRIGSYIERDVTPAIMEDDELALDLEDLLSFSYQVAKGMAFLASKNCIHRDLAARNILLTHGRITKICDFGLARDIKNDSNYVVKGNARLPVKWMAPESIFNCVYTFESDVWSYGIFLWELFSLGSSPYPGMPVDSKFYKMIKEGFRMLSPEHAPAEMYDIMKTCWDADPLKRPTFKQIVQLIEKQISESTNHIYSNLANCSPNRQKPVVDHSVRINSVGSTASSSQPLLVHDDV

O=C(Nc1ccc(Sc2ccccc2Cl)cc1)C1CCN(C(=O)c2ccc(F)cc2)CC1
IC50 [1]: 1 nM

CN1c2ccccc2C2(C)CCCC3Cc4cc(Br)cc(Br)c4OC312 (stereo unspecified)
IC50 [2]: 20 nM

CC(C)COC(=O)N1CCN(C(=O)C=CC(=O)Nc2ccc(Cl)cc2)CC1
IC50 [3]: 21 nM

Cc1ccccc1C(OC(c1ccccc1C)c1ccccc1C)c1ccccc1C
IC50 [2]: 8 nM

O=C(NC1CCC2CCCC2C1)C1CCCN(S(=O)(=O)c2cccs2)C1 (stereo unspecified)
IC50 [1]: 2 nM

CC(OC(=O)c1ccc2nc(N)sc2c1)C(=O)Nc1ccc(C(C)(C)C)cc1 (stereo unspecified)
IC50 [3]: 9 nM

Source: ChEMBL document CHEMBL4725248, “Machine Learning on DNA-Encoded Libraries: A New Paradigm for Hit Finding” (J Med Chem, 2020)
